Test results taken from patent publication US6251897A, “6-phenyltetrahydro-1,3-oxazin-2-one derivative and pharmaceutical composition containing the same” (Nikken Chemicals Co., LTD, priority 1996, dated 2001).

Tests used:
[1] = tested on: antigen-induced bronchospasm in guinea pig; test: Inhibitory effect on antigen-induced bronchospasm (Konzett-Roessler, ovalbumin-sensitized); type: in vivo, guinea pig (Hartley male); conditions: Cavia porcellus; intravenous, 10 minutes before antigen (0.2 mg/kg OA i.v.); read-out: Action for suppressing antigen-induced bronchospasms ED50
Description: A Hartley male guinea pig was sensitized by intramuscular administration of […] Ovalbumin (OA) on first day and fourth day, and used after 24th day. A trachial canula was introduced in the guinea pig anesthetized with pentobarbital and artificial ventilation was performed 25 to 29 days after the first sensitization. The overflow of the ventilation was measured by the Konzett-Roessler method while 0.2 mg/kg OA were administered intravenously. The test compound was dissolved in polyethylene glycol 400 and intravenously administered 10 minutes before administration of the antigens.

Type IV PDE = test: PDE inhibitory activity, type IV isozyme (3H-cAMP hydrolysis); type: biochemical; conditions: partially purified from rat neutrophils, 30° C., 30 minutes
Description: Type I, III, IV, and V PDE isozymes were prepared to study the PDE inhibitory activities and selectivities with the compound of the invention [Trends Pharmacol. Sci., 12, 19-27 (1992)]. Type I PDE was purchased from Sigma Corp. Type III, IV, and V PDE isozymes were partially purified from rats platelets (Type III and V) or neutrophils (Type IV). Each enzyme source was homogenized in a buffer (pH 6.5) containing 20 mM bisTris, 2 mM EDTA (ethylenediamine tetraacetate), 0.1 mM PMSF (phenylmethylsulfonyl fluoride), 5 mM 2-mercaptoethanol, 0.001 mM pepstatin, and 0.01 mM leupeptin and was centrifuged at 30,000×G for 30 minutes to obtain a supernatant, which was applied to an ion exchange column (Q-sepharose First Flow, Pharmacia Corp.) and was eluted with 0 to 1M sodium acetate. Partially purified isozymes were identified by observing the effects of conventional inhibitors.
Each PDE isozyme and the test compound dissolved in DMSO (dimethyl sulfoxide) were added to 50 mM Tris-HCl buffer containing 5 mM magnesium chloride. ^3 H-cAMP (for type III and IV PDE) or ^3 H-cGMP (for type I and V PDE) were added as substrates and were reacted at 30° C. for 30 minutes. The reaction was terminated by placing the test tube in boiling water of 100° C. for 5 minutes. The nucleotides formed by PDE were broken down by 5'-nucleotidase to ^3 H-adenosine or ^3 H-guanosine. The unreacted substrate and reaction product were separated through an ion-exchange column (QAE sephadex, Pharmacia Corp.) The eluted ^3 H-nucleoside was measured for its radioactivity by a liquid scintillation counter. The inhibiting activities of the compound of the present invention are shown by the IC50 value (M). Further, the inhibitory activities of the test samples against Type I, III, and V are 1/10 or less than that against type IV.

SMILES	ED50 [1]	IC50 (Type IV PDE)
COc1ccc(C2CCN(Cc3cccnc3)C(=O)O2)cc1OC1CCCC1 (stereo not drawn) [Compound No. 20, 6-(3-cyclopentyloxy-4-methoxyphenyl)-3-(3-pyridylmethyl)-3,4,5,6-tetrahydro-2H-1,3-oxazin-2-one]	8.5 mg/kg	3.5 µM
COc1ccc(C2(C)CCN(C)C(=O)O2)cc1OC1CCCC1 (stereo not drawn) [Compound No. 21, 6-(3-cyclopentyloxy-4-methoxyphenyl)-3,6-dimethyl-3,4,5,6-tetrahydro-2H-1,3-oxazin-2-one]	0.29 mg/kg	0.66 µM
COc1ccc(C2CCNC(=O)O2)cc1OCCc1ccccc1 (stereo not drawn) [Compound No. 23, 6-(4-methoxy-3-phenethyloxyphenyl)-3,4,5,6-tetrahydro-2H-1,3-oxazin-2-one]	13.6 mg/kg	1.5 µM
COc1ccc(C2CCNC(=O)O2)cc1OC1Cc2ccccc2C1 (stereo not drawn) [Compound No. 24, 6-[3-(2-indanyloxy)-4-methoxyphenyl]-3,4,5,6-tetrahydro-2H-1,3-oxazin-2-one]	1.6 mg/kg	0.13 µM
COc1ccc(C2CCN(C)C(=O)O2)cc1OC1Cc2ccccc2C1 (stereo not drawn) [Compound No. 25, 6-[3-(2-indanyloxy)-4-methoxyphenyl]-3-methyl-3,4,5,6-tetrahydro-2H-1,3-oxazin-2-one]	0.061 mg/kg	0.19 µM
CCC1(c2ccc(OC)c(OC3CCCC3)c2)CCNC(=O)O1 (stereo not drawn) [Compound No. 26, 6-(3-cyclopentyloxy-4-methoxyphenyl)-6-ethyl-3,4,5,6-tetrahydro-2H-1,3-oxazin-2-one]	2.4 mg/kg	3.5 µM
CCN1CCC(c2ccc(OC)c(OC3CCCC3)c2)OC1=O (stereo not drawn) [Compound No. 28, 6-(3-cyclopentyloxy-4-methoxyphenyl)-3-ethyl-3,4,5,6-tetrahydro-2H-1,3-oxazin-2-one]	7.4 mg/kg	1.7 µM
COc1ccc(C2(C)CCNC(=O)O2)cc1OC1Cc2ccccc2C1 (stereo not drawn) [Compound No. 40, 6-[3-(2-indanyloxy)-4-methoxyphenyl]-6-methyl-3,4,5,6-tetrahydro-2H-1,3-oxazin-2-one]	0.47 mg/kg	0.05 µM
COc1ccc(C2(C)CCN(C)C(=O)O2)cc1OC1Cc2ccccc2C1 (stereo not drawn) [Compound No. 43, 3,6-dimethyl-6-[3-(2-indanyloxy)-4-methoxyphenyl]-3,4,5,6-tetrahydro-2H-1,3-oxazin-2-one]	0.29 mg/kg	0.066 µM
COc1ccc(C2(C)CCNC(=O)O2)cc1OCCc1ccccc1 (stereo not drawn) [Compound No. 46, 6-(4-methoxy-3-phenethyloxyphenyl)-6-methyl-3,4,5,6-tetrahydro-2H-1,3-oxazin-2-one]	11.4 mg/kg	0.49 µM
COc1ccc(C2CCN(C)C(=O)O2)cc1OCC1CC1 (stereo not drawn) [Compound No. 49, 6-(3-cyclopropylmethyloxy-4-methoxyphenyl)-3-methyl-3,4 5,6-tetrahydro-2H-1,3-oxazin-2-one]	3.1 mg/kg	2 µM
COc1ccc(C2(C)CCNC(=O)O2)cc1OCC1CC1 (stereo not drawn) [Compound No. 50, 6-(3-cyclopropylmethyloxy-4-methoxyphenyl)-6-methyl-3,4,5,6-tetrahydro-2H-1,3-oxazin-2-one]	0.3 mg/kg	1.1 µM
COc1ccc(C2(C)CCN(C)C(=O)O2)cc1OCC1CC1 (stereo not drawn) [Compound No. 51, 6-(3-cyclopropylmethyloxy-4-methoxyphenyl)-3,6-dimethyl-3,4,5,6-tetrahydro-2H-1,3-oxazin-2-one]	2.23 mg/kg	1.9 µM
COc1ccc(C2CCNC(=O)O2)cc1OCC1(c2ccccc2)CC1 (stereo not drawn) [Compound No. 56, 6-[4-methoxy-3-[(1-phenylcyclopropyl)methyloxy]phenyl]-3,4,5,6-tetrahydro-2H-1,3-oxazin-2-one]	1.72 mg/kg	0.94 µM
COc1ccc(C2CCN(C)C(=O)O2)cc1OCC1(c2ccccc2)CC1 (stereo not drawn) [Compound No. 57, 6-[4-methoxy-3-[(1-phenylcyclopropyl)methyloxy]phenyl]-3-methyl-3,4,5,6-tetrahydro-2H-1,3-oxazin-2-one]	15.9 mg/kg	1.3 µM
